# Reference: patent US20220409747A1, “FIBROBLAST ACTIVATION PROTEIN (FAP)-TARGETED IMAGING AND THERAPY OF CANCERS AND OTHER FIBROTIC AND INFLAMMATORY DISEASES” (Purdue Research Foundation, priority 2019, published 2022)
# pKd: −log10 of the molar value.
# Assays:
# [1] = biological target: T1, FAP5 on HT1080-FAP (HT1080-hFAP) cells (Homo sapiens, UniProt Q12884); assay: Binding assay (cell-bound fluorescence, apparent Kd) on HT1080-FAP cells
# T1 construct: expressed in transfected cells; host or cells: HT1080
# T1 sequence (Q12884 1-760): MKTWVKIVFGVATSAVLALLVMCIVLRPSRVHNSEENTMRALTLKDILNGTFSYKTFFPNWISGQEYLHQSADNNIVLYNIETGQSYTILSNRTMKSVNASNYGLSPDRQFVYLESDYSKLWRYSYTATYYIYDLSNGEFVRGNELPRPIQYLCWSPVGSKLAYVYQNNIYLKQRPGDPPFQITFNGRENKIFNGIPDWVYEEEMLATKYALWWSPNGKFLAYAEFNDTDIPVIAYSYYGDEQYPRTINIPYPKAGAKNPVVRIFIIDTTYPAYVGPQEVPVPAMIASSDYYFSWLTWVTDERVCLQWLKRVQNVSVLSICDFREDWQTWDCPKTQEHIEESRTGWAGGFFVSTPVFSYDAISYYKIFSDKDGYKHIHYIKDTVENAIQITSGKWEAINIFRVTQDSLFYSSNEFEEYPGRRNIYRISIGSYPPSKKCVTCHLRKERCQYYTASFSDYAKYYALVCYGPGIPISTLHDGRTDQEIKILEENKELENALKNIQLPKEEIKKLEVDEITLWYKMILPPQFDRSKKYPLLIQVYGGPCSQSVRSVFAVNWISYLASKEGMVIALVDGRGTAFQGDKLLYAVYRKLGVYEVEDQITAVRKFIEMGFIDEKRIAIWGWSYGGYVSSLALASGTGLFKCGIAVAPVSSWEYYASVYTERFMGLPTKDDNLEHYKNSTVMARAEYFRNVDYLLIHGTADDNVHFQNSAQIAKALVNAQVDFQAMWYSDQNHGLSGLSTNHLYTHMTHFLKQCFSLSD
# Method: Method 1: HT1080-FAP cells (200000 cells/well) were seeded in a 24-well plate. The cells were allowed to grow as a monolayer over 24 h and incubated with various concentrations of FAP-targeted rhodamine conjugate either in the presence or absence of excess competition ligand (ligand without dye). After incubating for 1 h at 4° C. the cells were washed 3× with PBS to remove unbound fluorescence. The cells were then dissolved in 1% SDS and the cell-bound fluorescence was measured using a Neo2 Plate Reader.
# (§1) Method 2: 100,000 HT1080-hFAP and HT1080 cells were seeded in amine-coated 24-well plates to ensure cell adherence. Upon formation of a monolayer, cells were incubated with various concentrations of the compound in the presence or absence of excess of unlabeled ligand. After incubation for 1 h, the cells were washed 3× with medium to remove to unbound fluorescence and dissolved in 1% SDS. The cell-bound fluorescence was measured using a fluorescence spectrophotometer (NeO2 Plate reader) set with a λex=555 nm and λem=575 nm. Cell-bound fluorescence was plotted against various concentrations and the apparent Kd was determined by using one-site binding (hyperbola) curve fit in GraphPad prism7. The experiment was done in triplicate.
# [2] = system: HT1080 cells that do not express FAP5; assay: Binding assay on HT1080 cells that do not express FAP5; design: species or system human; settings: FIG. 8
# Method: as §1
# [3] = biological target: T2, FAP5-expressing HT1080-FAP cells (human FAP-transfected) (Homo sapiens, UniProt Q12884); assay: Confocal binding studies of FAP-targeting ligand on HT1080-FAP cells; assay type: cell-based
# T2 construct: expressed in transfected cells; host or cells: HT1080
# T2 sequence (Q12884 1-760): T1 sequence (Q12884 1-760)
# Method: Method 1: HT1080-FAP cells ([…]) were seeded in 4-well confocal plates. The cells were allowed to grow as a monolayer over 24 h at 37° C. and were incubated with various concentrations of conjugate ranging from 3.0 nM (lowest) to 25 nM (highest) in 1% FBS in PBS for 1 h at 37° C. Cells were washed with 1% FBS (3×500 μL) and the cells were left in 500 μl of 1% FBS and images were acquired with confocal microscopy. Again, the PBS in cells was replaced with growth media and the cells were re-incubated at 37° C. for 8 to 48 h. Images acquired at different concentrations of the compound at 37° C. are shown in FIG. 3, at different time points are shown in FIG. 4, and with 100-fold excess of competition ligand are shown in FIG. 5.
# Method 2: Human FAP-transfected HT1080-FAP cells were (100,000) were plated on 4-well confocal plates and incubated with different concentrations (50 nM, 25 nM, 12.5 nM, 6.25 nM, 3.125 nM and 1.65 nM) of the compound for 1 h at 37° C. The unbound fluorescence was removed by washing the cells 3× with medium, and cell-bound fluorescence was imaged using an Olympus confocal microscope. The experiment was done in triplicate.
# [4] = biological target: T3, FAP (e.g., FAP5) on HEK-FAP cells (Homo sapiens, UniProt Q12884); assay: Displacement binding curves in HEK-FAP cells; settings: displacement binding (FIGS. 21-22), read-out: affinity for cells that express FAP
# T3 construct: expressed in transfected cells; host or cells: HEK
# T3 sequence (Q12884 1-760): T1 sequence (Q12884 1-760)
Structure (SMILES),pKd ([1]; cells expressing FAP5 (FIG. 7)),"binding to HT1080 cells expressing FAP5 in the presence of an unlabelled FAP5 ligand ([1]; competitor e.g., compound 8, FIG. 8)",binding to HT1080 cells that do not express FAP5 [2],"time remaining localized and internalized to FAP5-expressing cells ([3]; 12.5 nM, e.g., 1 hour, 8 hours, 24 hours, or more (FIG. 4))","localization to cells expressing FAP5 (confocal) ([3]; HT1080-FAP cells, 50 nM, 25 nM, 12.5 nM, and 6.5 nM (FIG. 3))",pKd [4]
CN(C)c1ccc2c(c1)OC1=CC(=[N+](C)C)C=CC1C2c1ccc(C(=O)NCCOCCOCCOCCOCCC(=O)NCCNC(=O)c2ccc(-c3cn(Cc4cccc5c4CN(C(=O)C[C@@H]4C[C@@H](C(=O)N6CC(F)(F)C[C@H]6C#N)NC4=O)C5)nn3)cc2)cc1C(=O)O (stereo partly drawn) [compound 1],7.82 to 8.30,does not bind,does not bind,at least 1 hour,localizes to cells,8.00 to 9.00
CN(C)c1ccc2c(-c3ccc(C(=O)NCCNC(=O)c4cccc5c4CN(C(=O)C[C@@H]4C[C@@H](C(=O)N6CC(F)(F)C[C@H]6C#N)NC4=O)C5)cc3C(=O)[O-])c3ccc(=[N+](C)C)cc-3oc2c1 [compound 5],–,–,–,–,–,8.00 to 9.00
CN(C)c1ccc2c(-c3ccc(C(=O)NCCNC(=O)CCc4cccc5c4CN(C(=O)C[C@@H]4C[C@@H](C(=O)N6CC(F)(F)C[C@H]6C#N)NC4=O)C5)cc3C(=O)[O-])c3ccc(=[N+](C)C)cc-3oc2c1 [compound 6],–,–,–,–,–,8.00 to 9.00
N#C[C@@H]1C[C@H](F)CN1C(=O)[C@@H]1C[C@@H](CC(=O)N2Cc3cccc(Cn4cc(-c5ccc(C(=O)NCCNC(=O)CCC(=O)O)cc5)nn4)c3C2)C(=O)N1 [compound 21],–,–,–,–,–,8.00 to 9.00
